According to ChEMBL document CHEMBL1155824, “Synthesis and antitumor activity of cyclodepsipeptide zygosporamide and its analogues” (Bioorg Med Chem Lett, 2008):

Assays:
Type in all cases: functional, cell-based
[1] = tested on: SF-268; experiment: Cytotoxicity against human SF268 cells
[2] = tested on: MDA-MB-231; experiment: Cytotoxicity against human MDA-MB-231 cells
[3] = tested on: HCT-116; experiment: Cytotoxicity against human HCT116 cells
[4] = tested on: SF-295; experiment: Cytotoxicity against human SF295 cells
[5] = tested on: A549; experiment: Cytotoxicity against human A549 cells

| SMILES | IC50 [1] [µM] | IC50 [2] [µM] | IC50 [3] [µM] | IC50 [4] [µM] | IC50 [5] [µM] |
| --- | --- | --- | --- | --- | --- |
| CC(C)C[C@@H]1NC(=O)[C@@H](CC(C)C)NC(=O)[C@H](C)NC(=O)[C@H](CC(C)C)OC(=O)[C@H](Cc2ccccc2)NC1=O | 35 | 7.5 | > 50 | 19.7 | 31 |
| CC(C)C[C@@H]1NC(=O)[C@H](Cc2ccccc2)NC(=O)[C@H](CC(C)C)NC(=O)[C@@H](CC(C)C)NC(=O)[C@H](Cc2ccccc2)NC1=O | 20.5 | > 50 | 1.9 | 14.4 | 21 |
| CC(C)C[C@@H]1NC(=O)[C@@H](CC(C)C)NC(=O)[C@H](Cc2ccccc2)NC(=O)[C@H](C)OC(=O)[C@H](Cc2ccccc2)NC1=O | 31 | > 50 | 7.8 | 32 | > 50 |
| CC(C)C[C@@H]1NC(=O)[C@@H](CC(C)C)NC(=O)[C@H](Cc2ccccc2)NC(=O)[C@H](CC(C)C)OC(=O)[C@H](C)NC1=O | 8.8 | 2.8 | 2.7 | 6 | > 50 |
| CC(C)C[C@@H]1OC(=O)[C@H](Cc2ccccc2)NC(=O)[C@H](C)NC(=O)[C@@H](CC(C)C)NC(=O)[C@H](Cc2ccccc2)NC1=O | > 50 | > 50 | > 50 | > 50 | > 50 |
| CC(C)C[C@@H]1NC(=O)[C@@H](CC(C)C)NC(=O)[C@H](Cc2ccccc2)NC(=O)[C@H](CC(C)C)OC(=O)[C@H](Cc2ccccc2)NC1=O [ZYGOSPORAMIDE] | 4.6 | 5.7 | 22 | 4.2 | 2.5 |
| CC(C)C[C@@H]1NC(=O)[C@@H](C)NC(=O)[C@H](Cc2ccccc2)NC(=O)[C@H](CC(C)C)OC(=O)[C@H](Cc2ccccc2)NC1=O | 10.4 | 5 | 2.1 | 8.7 | > 50 |
| CC(=O)O[C@H]1C(=O)[C@@]2(C)[C@H]([C@H](OC(=O)c3ccccc3)[C@]3(O)C[C@H](OC(=O)[C@H](O)[C@@H](NC(=O)c4ccccc4)c4ccccc4)C(C)=C1C3(C)C)[C@]1(OC(C)=O)CO[C@@H]1C[C@@H]2O [PACLITAXEL] | 0.0153 | 0.0405 | 0.0136 | 0.29 | 0.0231 |
